Measured values taken from PMC10829382, “Purification and characterization of L-arginine deiminase from Penicillium chrysogenum” (BMC Microbiology, 2024).
Each block holds one molecule with its values, some of them ahead of it.

What was measured:
[1] = target: T1, L-arginine deiminase (ADI) from Penicillium chrysogenum; assay: ammonia release, Nessler's reagent, […] nm; residual activity at […]; assay type: biochemical
T1 construct: single 49 kDa band on SDS-PAGE

[2] = test system: T1, L-arginine deiminase (ADI) from Penicillium chrysogenum; assay: ammonia release, Nessler's reagent, […] nm; Eadie-Hofstee plot; assay type: biochemical; settings: 40 °C, 30 min; phosphate buffer pH 7.5 in the standard assay
[3] = chelator in the reaction mixture, L-arginine as substrate, 40 °C

IC50 [1, 3]: 5.19 mM
Compound: O=C(O)CN(CCN(CC(=O)O)CC(=O)O)CC(=O)O [EDTA]

Compound: N=C(N)NCCC[C@H](N)C(=O)O [L-arginine]
Km [2]: 750 µM

IC50 ([1]; covalent, tyrosyl modifier, 150 mM phosphate pH 7.5, 37 °C, 20 min): 5.4 mM
Compound: CC(=O)n1ccnc1 [N-acetyl-imidazole]

IC50 ([1]; covalent, tryptophanyl modifier, 1 h in 150 mM phosphate pH 7.5, then dialysed before assay): 5 mM
Compound: O=C1CCC(=O)N1Br [N-bromosuccinimide]

IC50 ([1]; covalent, sulfhydryl modifier, pre-incubated 1 h at 25 °C, 100 mM Tris-HCl pH 5.0, 1 mM EDTA): 4.95 mM
Compound: CCN1C(=O)C=CC1=O [N-ethylmaleimide]

IC50 ([1]; covalent, arginyl modifier, 50 mM sodium borate pH 7.0, room temperature): 4.66 mM
Compound: CC(=O)C(C)=O [butanedione]

IC50 ([1]; covalent, lysyl modifier, 100 mM Tris-HCl pH 7.0, 4 °C, 1 h): 6.48 mM
Compound: CN(C)c1cccc2c(S(=O)(=O)Cl)cccc12 [dansyl chloride]

IC50 ([1]; covalent, histidyl modifier, assay buffer, 25 °C, 5 min): 6.44 mM
Compound: CCOC(=O)OC(=O)OCC [diethylpyrocarbonate]

IC50 [1, 3]: 4.79 mM
Compound: c1cnc2c(c1)ccc1cccnc12 [o-phenanthroline]

IC50 [1, 3]: 7.46 mM
Compound: c1ccc(-c2ccccn2)nc1 [α,α-dipyridyl]
